Measurements taken from patent publication US5457051A, “Enantioselective hydrolysis of ketoprofen esters by beauveria bassiana and enzymes derived therefrom” (Sepracor, Inc., priority 1993, dated 1995).
Each block holds one compound with its values, some of them ahead of it. Starred links: 1 amine or outer side, 2 acyl side, 3 side chain; linkers in the order of their positions; H or OH if unused. Residues, ends and D or L forms follow the SMILES beside them. *: point of attachment. pNA = O=[N+]([O-])c1ccc(N*)cc1; Suc = O=C(CCC(=O)[*:2])[*:1]

Columns and labels:
[1] = tested on: Beauveria ester hydrolase; test: Km from the activity of the preparation at different concentrations of substrate; assay type: biochemical, Beauveria bassiana; conditions: partially purified enzyme preparation
[2] = tested on: Beauveria ester hydrolase; test: Substrate specificity of the enzyme preparation (Table 9; lipase and protease substrates); assay type: biochemical, Beauveria bassiana; conditions: compound used as substrate
Method: A one-mL (final volume) reaction mixture contained ketoprofen choline ester (6 mg), NaPi buffer (200 mM, pH 6.5), and 150 mg of whole cells or pellet, or 300 μL cell crude extract. The reaction was carried out at 30° C. in a shaker with a reciprocal speed of 169 rpm. Routine assays of the enzyme were performed by using p-nitrophenyl ketoprofen as a substrate at 30° C.
(§1) Although the enzyme hydrolyzes the water-soluble choline ester, it appears that the enzyme might be a lipase.

[3] = tested on: Beauveria ester hydrolase; test: Sensitivity of the enzyme to PMSF; assay type: biochemical, Beauveria bassiana
Description: as §1

[4] = tested on: Beauveria ester hydrolase; conditions: at 40 mM acid; partially purified enzyme preparation

SMILES: C[C@H](NC(=O)CCC(=O)O)C(=O)N[C@@H](C)C(=O)N1CCC[C@H]1C(=O)N[C@@H](Cc1ccccc1)C(=O)Nc1ccc([N+](=O)[O-])cc1 [N-succinyl-ala-ala-pro-phe-p-nitroaniline] (Suc-AAPF-pNA)
hydrolysis of the substance by the enzyme preparation (in words) [2]: does not hydrolyze

SMILES: O=S(=O)(F)Cc1ccccc1 [PMSF, phenylmethylsulfonylfluoride]
sensitivity of the enzyme to the inhibitor (in words) [3]: sensitive

SMILES: C[C@@H](C(=O)O)c1cccc(C(=O)c2ccccc2)c1 [acid product, R-ketoprofen]
inhibition of the enzyme by reaction product [4]: approximately 45%

The next lines start with the values.

estimated km [1]: 4.96 mM
SMILES: CC(C(=O)OCC[N+](C)(C)C)c1cccc(C(=O)c2ccccc2)c1 (racemic) [ketoprofen choline ester]

Enzymic activity (n mole substrate hydrolyzed/min/mL enzyme) [2]: 215 n mole substrate hydrolyzed/mi
SMILES: CC(=O)Oc1ccc([N+](=O)[O-])cc1 [p-nitrophenyl acetate]

Enzymic activity (n mole substrate hydrolyzed/min/mL enzyme) [2]: 7496 n mole substrate hydrolyzed/mi
SMILES: CCCCCCCCCCCCCCCC(=O)Oc1ccc([N+](=O)[O-])cc1 [p-nitrophenyl palmitate]
